According to publication PMC6081404, “Active Transport of Peptides Across the Intact Human Tympanic Membrane” (Scientific Reports, 2018):

Tested on: rat TM fragment
Assay: Integrity of the TM fragment and seal, trypan-blue dye transit into the lower chamber
Format: in vitro ADME
Conditions: 0.5% trypan-blue in upper chamber, immediately and after 1–4 hours, visual and absorbance at 590 nm
Text: Rat TMs were interposed between the two chambers.

dye transit into the lower chamber across an intact TM fragment: excluded from the lower chamber
SMILES: Cc1cc(-c2ccc(/N=N/c3c(S(=O)(=O)O)cc4cc(S(=O)(=O)O)cc(N)c4c3O)c(C)c2)ccc1/N=N/c1c(S(=O)(=O)O)cc2cc(S(=O)(=O)O)cc(N)c2c1O [trypan-blue]
